Values joined by “and” are separate entries in the source; they are usually repeats but may differ in a detail not shown here. Equal entries are not always repeated. “Also recorded” adds a separate entry of the source.
Assays:
[1] = Drug safety: adverse effects and complications (Example 2); format: in vivo, human
Procedure: (§1) Patients newly diagnosed with visceral leighmaniasis, confirmed by the presence of leishmaniasis amastigotes in spleen aspirates, were allocated randomly to groups subjected to the following treatments:
(§2) 1) IV/IM sodium stibogluconate (SbV) 20 mg/kg body weight once per day;
(§3) 2) IM paromomycin sulphate (PM) 14-16 mg/kg body weight once per day;
(§4) 3) IV/IM sodium stibogluconate 20 mg/kg body weight once per day and paromomycin sulphate 14-16 mg/kg body weight once per day.
(§5) All treatments were administered until the first negative spleen aspirate was obtained, or for 20 consecutive days regardless of aspirate findings.
(§6) The following procedures were conducted for patient assessment at intake and at suitable intervals during and after treatment: clinical history writeup: physical examination: body weight: chest X-ray: ECG tracing: liver and kidney function tests: blood picture and blood smears (to rule out malaria): complete urinalysis: stool examination: prothrombin time: and spleen aspirate smear examination by the method of Chulay & Bryceson, Quantitations of amastigotes of leishmania donovani in smears of splenic aspirates from patients with visceral leishmaniasis, American Journal of Tropical Medicine and Hygiene, 32, 1983, 475-479.
(§7) Drug safety was assessed for each treatment regime in terms of incidence of drug-related signs and symptoms and of laboratory test results return abnormalities. The assembled data were processed statistically by the Fisher's exact test (chi-square) and Pearson's correlation coefficient.

visceral leishmaniasis [2] = experiment: Clinical, haematologic and parasite indices during treatment and follow-up (Example 2); format: in vivo, human; settings: mean
Procedure: as §1, §2, §3, §4, §5, §6

[3] = system: visceral leishmaniasis (leishmaniasis amastigotes in spleen aspirates); experiment: Randomised clinical trial in newly diagnosed visceral leishmaniasis: clinical and parasitologic cure (Example 2); format: in vivo, human; settings: for Clinical cures, % / Clinical cures, No.: at termination, complete abatement of initial symptoms with marked reduction of spleen size; for Apparent cures, % / Apparent cures, No.: negative spleen aspirate smears at termination of treatment; for Failures, % / Failures, No.: partial cures and relapses; for Partial cures, % / Partial cures, No.: persistence of low parasite counts in terminal spleen aspirates; for Definite cures, % / Definite cures, No.: persisting clinical cure with negative spleen aspirates 6 months after termination; for Relapses, % / Relapses, No.: reappearance of leishmanial parasites after an apparent cure; for Mean treatment duration: treated until first negative spleen aspirate or for 20 consecutive days
Procedure: as §1, §2, §3, §4, §5
Exclusion criteria were: […]; known allergy to aminoglycoside compounds: pregnancy; haemoglobin assay below 40 g/l; abnormal prothrombin time; impaired liver or renal function; major concurrent infection; previous drug treatment for leishmaniasis; and spleen smear-parasite grading of less than 4+.
as §6
Treatment of effectiveness was graded under the following headings:
Clinical cure: complete abatement of initial symptoms with marked reduction of spleen size;
Partial cure: persistence of low parasite counts in terminal spleen aspirates;
Apparent cure: negative spleen aspirate smears at termination of treatment;
Relapse: reappearance of leishmanial parasites after an apparent cure;
Definite cure: persisting clinical cure with negative spleen aspirates 6 months after termination of treatment;
Failures: partial cures and relapses.
as §7

visceral leishmaniasis [4] = settings: parenteral, 20 mg/kg body weight over 30 days; cited from earlier work
Kala-azar = settings: 20 mg SbV/kg daily for 40 days; cited from earlier work
[5] = Blood biochemistry during treatment and follow-up (Example 2); format: in vivo, human
Procedure: as §2, §3, §4, §5, §6
The assembled data were processed statistically by the Fisher's exact test (chi-square) and Pearson's correlation coefficient.

For NC[C@@H]1O[C@H](O[C@H]2[C@@H](O)[C@H](O[C@@H]3[C@@H](O)[C@H](N)C[C@H](N)[C@H]3O[C@H]3O[C@H](CO)[C@@H](O)[C@H](O)[C@H]3N)O[C@@H]2CO)[C@H](N)[C@@H](O)[C@@H]1O [PM, paromomycin sulphate], the “Adverse effects, %” value ([1]; in vivo) was 0%, the “Adverse effects, No.” value ([1]; in vivo) was 0 No and the “antibiotic treatment needed for pneumonia” value ([1]; in vivo) was “did not need additional antibiotic medication”. The “bouts of pneumonia, cases” value ([1]; in vivo) was 4 cases, the “side effects (in words)” value ([1]; in vivo) was “no side effects” and the Eosinophil count (visceral leishmaniasis [2]; Day 0 (intake)) was 0 /cu mm. The Heart rate (visceral leishmaniasis [2]; Day 0 (intake)) was 105 min⁻¹, the Hemoglobin assay (visceral leishmaniasis [2]; Day 0 (intake)) was 7.1 g/dL and the Parasite grading (visceral leishmaniasis [2]; Day 0 (intake)) was 5. The Spleen size (visceral leishmaniasis [2]; Day 0 (intake)) was 15.5 cm, the Temp (visceral leishmaniasis [2]; Day 0 (intake)) was 38.3 °C and the Weight (visceral leishmaniasis [2]; Day 0 (intake)) was 34.0 kg. For the same compound, the Eosinophil count (visceral leishmaniasis [2]; Day 20) was 2 /cu mm, the Heart rate (visceral leishmaniasis [2]; Day 20) was 84 min⁻¹ and the Hemoglobin assay (visceral leishmaniasis [2]; Day 20) was 10.0 g/dL. The Parasite grading (visceral leishmaniasis [2]; Day 20) was 1, the Spleen size (visceral leishmaniasis [2]; Day 20) was 8.4 cm and the Temp (visceral leishmaniasis [2]; Day 20) was 36.1 °C. For the same compound, the Weight (visceral leishmaniasis [2]; Day 20) was 37.0 kg, the Eosinophil count (visceral leishmaniasis [2]; Day 75) was 1 /cu mm and the Heart rate (visceral leishmaniasis [2]; Day 75) was 82 min⁻¹. It also gave a Hemoglobin assay (visceral leishmaniasis [2]; Day 75) of 12.3 g/dL, a Parasite grading (visceral leishmaniasis [2]; Day 75) of 1 and a Spleen size (visceral leishmaniasis [2]; Day 75) of 4.3 cm. For the same compound, the Temp (visceral leishmaniasis [2]; Day 75) was 36.1 °C, the Weight (visceral leishmaniasis [2]; Day 75) was 39.1 kg and the “Clinical cures, %” value [3] was 100%. For the same compound, the “Clinical cures, No.” value [3] was 19 No, the “incidence of relapses (in words)” value ([3]; comparison of treatment groups) was “least incidence of relapses; also recorded: smallest share of relapses; also recorded: low rate of relapses” and the “parasitologic effectiveness (in words)” value ([3]; comparison of treatment groups) was “best results”. The “share of partial cures (in words)” value ([3]; comparison of treatment groups) was “highest share of partial cures”, the “Apparent cures, %” value [3] was 84.2% and the “Apparent cures, No.” value [3] was 16 No. The “Failures, %” value [3] was 21%, the “Failures, No.” value [3] was 4 No and the “Partial cures, %” value [3] was 15.8%. The “Partial cures, No.” value [3] was 3 No, the “Definite cures, %” value [3] was 79% and the “Definite cures, No.” value [3] was 15 No. The “Relapses, %” value [3] was 5.2%, the “Relapses, No.” value [3] was 1 No and the Mean treatment duration [3] was 19 days.

With sodium stibogluconate [SbV] the “Adverse effects, %” value ([1]; in vivo) was 27%, the “Adverse effects, No.” value ([1]; in vivo) was 3 No and the “bouts of pneumonia, cases” value ([1]; in vivo) was 5 cases. For the same compound, the “side effects (in words)” value ([1]; in vivo) was “distinctly more side effects”, the “antibiotic treatment needed for pneumonia” value ([1]; patients with pneumonia) was “required antibiotic treatment” and the cure rate (visceral leishmaniasis [4]) was “about 80%”. The Eosinophil count (visceral leishmaniasis [2]; Day 0 (intake)) was 0 /cu mm, the Heart rate (visceral leishmaniasis [2]; Day 0 (intake)) was 112 min⁻¹ and the Hemoglobin assay (visceral leishmaniasis [2]; Day 0 (intake)) was 7.6 g/dL. The Parasite grading (visceral leishmaniasis [2]; Day 0 (intake)) was 5, the Spleen size (visceral leishmaniasis [2]; Day 0 (intake)) was 14.5 cm and the Temp (visceral leishmaniasis [2]; Day 0 (intake)) was 38.5 °C. The Weight (visceral leishmaniasis [2]; Day 0 (intake)) was 33.2 kg, the Eosinophil count (visceral leishmaniasis [2]; Day 20) was 1 /cu mm and the Heart rate (visceral leishmaniasis [2]; Day 20) was 92 min⁻¹. The Hemoglobin assay (visceral leishmaniasis [2]; Day 20) was 8.9 g/dL, the Parasite grading (visceral leishmaniasis [2]; Day 20) was 1 and the Spleen size (visceral leishmaniasis [2]; Day 20) was 7 cm. The Temp (visceral leishmaniasis [2]; Day 20) was 36.2 °C, the Weight (visceral leishmaniasis [2]; Day 20) was 27.3 kg and the Eosinophil count (visceral leishmaniasis [2]; Day 75) was 1 /cu mm. For the same compound, the Heart rate (visceral leishmaniasis [2]; Day 75) was 80 min⁻¹, the Hemoglobin assay (visceral leishmaniasis [2]; Day 75) was 11.6 g/dL and the Parasite grading (visceral leishmaniasis [2]; Day 75) was 1. The Spleen size (visceral leishmaniasis [2]; Day 75) was 5 cm, the Temp (visceral leishmaniasis [2]; Day 75) was 36.9 °C and the Weight (visceral leishmaniasis [2]; Day 75) was 36.7 kg. For the same compound, the failures (Kala-azar) was 8%, the “Clinical cures, %” value [3] was 100% and the “Clinical cures, No.” value [3] was 11 No. For the same compound, the “parasitologic effectiveness (in words)” value ([3]; comparison of treatment groups) was “by far the least effective of all”, the “Apparent cures, %” value [3] was 90.9% and the “Apparent cures, No.” value [3] was 10 No. The “Failures, %” value [3] was 45.5% and 45. %, the “Failures, No.” value [3] was 5 No and the “Partial cures, %” value [3] was 9.1%. For the same compound, the “Partial cures, No.” value [3] was 1 No, the “Definite cures, %” value [3] was 54.5% and the “Definite cures, No.” value [3] was 6 No. The “Relapses, %” value [3] was 36.4%, the “Relapses, No.” value [3] was 4 No and the Mean treatment duration [3] was 17 days. The “ALAT (Alanine aminotransferase)” value ([5]; Day 0) was 25.4 I.U./l, the “ALP (Alkaline phosphatase)” value ([5]; Day 0) was 87.6 I.U./l and the “ASAT (Aspartate aminotransferase)” value ([5]; Day 0) was 20.2 I.U./l. It also gave an Albumin ([5]; Day 0) of 31.3 g/L, a BUN assay ([5]; Day 0) of 8.2 mmol/L and a Bilirubin ([5]; Day 0) of 6.4 µmol/L. For the same compound, the Creatinine ([5]; Day 0) was 73.6 µmol/L, the “ALAT (Alanine aminotransferase)” value ([5]; Day 10) was 24.0 I.U./l and the “ALP (Alkaline phosphatase)” value ([5]; Day 10) was 79.1 I.U./l. For the same compound, the “ASAT (Aspartate aminotransferase)” value ([5]; Day 10) was 19.2 I.U./l, the Albumin ([5]; Day 10) was 30.3 g/L and the BUN assay ([5]; Day 10) was 8.1 mmol/L. For the same compound, the Bilirubin ([5]; Day 10) was 4.1 µmol/L, the Creatinine ([5]; Day 10) was 68.0 µmol/L and the “ALAT (Alanine aminotransferase)” value ([5]; Day 20) was 22.0 I.U./l. For the same compound, the “ALP (Alkaline phosphatase)” value ([5]; Day 20) was 71.0 I.U./l, the “ASAT (Aspartate aminotransferase)” value ([5]; Day 20) was 21.0 I.U./l and the Albumin ([5]; Day 20) was 29.5 g/L. It also gave a BUN assay ([5]; Day 20) of 4.0 mmol/L, a Bilirubin ([5]; Day 20) of 3.8 µmol/L and a Creatinine ([5]; Day 20) of 53.0 µmol/L. The “ALAT (Alanine aminotransferase)” value ([5]; Day 75) was 25.3 I.U./l, the “ALP (Alkaline phosphatase)” value ([5]; Day 75) was 83.7 I.U./l and the “ASAT (Aspartate aminotransferase)” value ([5]; Day 75) was 25.5 I.U./l. For the same compound, the Albumin ([5]; Day 75) was 36.6 g/L, the BUN assay ([5]; Day 75) was 3.8 mmol/L and the Bilirubin ([5]; Day 75) was 4.5 µmol/L. For the same compound, the Creatinine ([5]; Day 75) was 73.5 µmol/L, the “ALAT (Alanine aminotransferase)” value ([5]; Day 195) was 23.0 I.U./l and the “ALP (Alkaline phosphatase)” value ([5]; Day 195) was 84.0 I.U./l. The “ASAT (Aspartate aminotransferase)” value ([5]; Day 195) was 22.0 I.U./l, the Albumin ([5]; Day 195) was 40.0 g/L and the BUN assay ([5]; Day 195) was 4.0 mmol/L. It also gave a Bilirubin ([5]; Day 195) of 4.0 µmol/L and a Creatinine ([5]; Day 195) of 78.9 µmol/L.

For vitamin K, the incidence of epistaxis ([1]; vitamin K 10 mg daily for 5 days, low initial haemoglobin and prolonged prothrombin time) was “significantly reduced”.
